The subject of the experiment is MV-4-11 cells. Description: Gene expression microarray analysis (Affymetrix PrimeView) and GSEA. It counts as cell-based, human. Details: RFU PODN (11730768_x_at) / Fold change /veh PODN (11730768_x_at) / RFU LINC00158 (11744669_a_at) / Fold change /veh LINC00158 (11744669_a_at) / RFU DUSP10 (11751237_a_at) / Fold change /veh DUSP10 (11751237_a_at) / RFU ID3 (11757404_x_at) / Fold change /veh ID3 (11757404_x_at) / RFU PLEKHG5 (11737974_s_at) / Fold change /veh PLEKHG5 (11737974_s_at) / RFU LRRC4B (11730491_at) / Fold change /veh LRRC4B (11730491_at) / RFU GIMAP4 (11747438_a_at) / Fold change /veh GIMAP4 (11747438_a_at) / RFU KRT8 (11758183_x_at) / Fold change /veh KRT8 (11758183_x_at) / RFU CNN1 (11734310_a_at) / Fold change /veh CNN1 (11734310_a_at) / RFU VPS37D (11726825_at) / Fold change /veh VPS37D (11726825_at) / RFU C10orf10 (11716522_x_at) / Fold change /veh C10orf10 (11716522_x_at) / RFU KIR2DL2 /// KIR2DL4 /// KIR2DL5A /// KIR2DL5B /// KIR2DS1 /// KIR2DS2 /// KIR2DS3 /// KIR2DS4 /// KIR3DL3 /// KIR3DL3 /// KIR3DS1 (11738374_at) / Fold change /veh KIR2DL2 /// KIR2DL4 /// KIR2DL5A /// KIR2DL5B /// KIR2DS1 /// KIR2DS2 /// KIR2DS3 /// KIR2DS4 /// KIR3DL3 /// KIR3DL3 /// KIR3DS1 (11738374_at) / RFU C1QL1 (11718748_at) / Fold change /veh C1QL1 (11718748_at) / RFU TMPRSS4 (11747572_a_at) / Fold change /veh TMPRSS4 (11747572_a_at) / RFU HAMP (11756126_x_at) / Fold change /veh HAMP (11756126_x_at) / RFU RNFT2 (11725882_a_at) / Fold change /veh RNFT2 (11725882_a_at) / RFU NR4A2 (11747474_a_at) / Fold change /veh NR4A2 (11747474_a_at) / RFU ABCC12 (11746883_a_at) / Fold change /veh ABCC12 (11746883_a_at) / RFU TMEM136 (11760407_x_at) / Fold change /veh TMEM136 (11760407_x_at) / RFU CLDN22 /// WWC2 (11732394_at) / Fold change /veh CLDN22 /// WWC2 (11732394_at) / RFU HLA-DPB1 (11760878_x_at) / Fold change /veh HLA-DPB1 (11760878_x_at) / RFU SPINT1 (11716480_a_at) / Fold change /veh SPINT1 (11716480_a_at) / RFU GAP43 (11754022_s_at) / Fold change /veh GAP43 (11754022_s_at) / RFU A4GNT (11735810_at) / Fold change /veh A4GNT (11735810_at) / RFU PRB3 (11715151_x_at) / Fold change /veh PRB3 (11715151_x_at) / RFU TUBB4B (11761932_at) / Fold change /veh TUBB4B (11761932_at) / RFU CAPN14 (11732068_a_at) / Fold change /veh CAPN14 (11732068_a_at) / RFU TMCC2 (11721928_a_at) / Fold change /veh TMCC2 (11721928_a_at) / RFU IRGQ (11745062_a_at) / Fold change /veh IRGQ (11745062_a_at) / RFU FAM174B (11720279_a_at) / Fold change /veh FAM174B (11720279_a_at) / RFU TMPRSS4 (11748680_a_at) / Fold change /veh TMPRSS4 (11748680_a_at) / RFU FAM212B (11763350_a_at) / Fold change /veh FAM212B (11763350_a_at) / RFU PLEKHG5 (11743358_a_at) / Fold change /veh PLEKHG5 (11743358_a_at) / RFU ZSCAN30 (11745921_a_at) / Fold change /veh ZSCAN30 (11745921_a_at) / RFU CMKLR1 (11741424_a_at) / Fold change /veh CMKLR1 (11741424_a_at) / RFU LOC101060620 /// MAPK8IP1 (11723275_at) / Fold change /veh LOC101060620 /// MAPK8IP1 (11723275_at) / RFU SPTSSB (11747773_x_at) / Fold change /veh SPTSSB (11747773_x_at) / RFU PRSS12 (11739890_at) / Fold change /veh PRSS12 (11739890_at) / RFU BIN1 (11741810_x_at) / Fold change /veh BIN1 (11741810_x_at) / RFU WNT11 (11732464_a_at) / Fold change /veh WNT11 (11732464_a_at) / RFU C10orf10 (11716521_a_at) / Fold change /veh C10orf10 (11716521_a_at) / RFU C5orf56 (11738089_at) / Fold change /veh C5orf56 (11738089_at) / RFU CYB561 (11721691_x_at) / Fold change /veh CYB561 (11721691_x_at) / RFU ANKRD19P (11752326_a_at) / Fold change /veh ANKRD19P (11752326_a_at) / RFU OR2T12 /// OR2T33 /// OR2T8 (11738714_s_at) / Fold change /veh OR2T12 /// OR2T33 /// OR2T8 (11738714_s_at) / RFU VCAN (11748164_a_at) / Fold change /veh VCAN (11748164_a_at) / RFU JSRP1 (11732532_at) / Fold change /veh JSRP1 (11732532_at) / RFU KRTAP10-11 (11738290_x_at) / Fold change /veh KRTAP10-11 (11738290_x_at) / RFU MYO3A (11730013_a_at) / Fold change /veh MYO3A (11730013_a_at) / RFU EBF3 (11725865_a_at) / Fold change /veh EBF3 (11725865_a_at) / RFU CAMK2N1 (11719241_x_at) / Fold change /veh CAMK2N1 (11719241_x_at) / RFU C5orf56 (11738088_a_at) / Fold change /veh C5orf56 (11738088_a_at) / RFU OLFML3 (11715873_a_at) / Fold change /veh OLFML3 (11715873_a_at) / RFU LOC100653217 /// NTM (11731650_a_at) / Fold change /veh LOC100653217 /// NTM (11731650_a_at) / RFU MAPK11 (11762145_a_at) / Fold change /veh MAPK11 (11762145_a_at) / RFU FIZ1 (11724087_x_at) / Fold change /veh FIZ1 (11724087_x_at) / RFU OASL (11726364_x_at) / Fold change /veh OASL (11726364_x_at) / RFU SOX15 (11748057_x_at) / Fold change /veh SOX15 (11748057_x_at) / RFU CD79A (11719716_a_at) / Fold change /veh CD79A (11719716_a_at) / RFU HIST1H1D (11736915_at) / Fold change /veh HIST1H1D (11736915_at) / RFU CASKIN2 (11723855_a_at) / Fold change /veh CASKIN2 (11723855_a_at) / RFU LOC730098 (11760151_x_at) / Fold change /veh LOC730098 (11760151_x_at) / RFU OR4N2 (11742367_at) / Fold change /veh OR4N2 (11742367_at) / RFU PRRT2 (11749266_a_at) / Fold change /veh PRRT2 (11749266_a_at) / RFU SNX32 (11753110_a_at) / Fold change /veh SNX32 (11753110_a_at) / RFU CDHR5 (11726645_a_at) / Fold change /veh CDHR5 (11726645_a_at) / RFU RCAN1 (11760418_a_at) / Fold change /veh RCAN1 (11760418_a_at) / RFU FAM167A (11723789_a_at) / Fold change /veh FAM167A (11723789_a_at) / RFU FAM26E (11764081_at) / Fold change /veh FAM26E (11764081_at) / RFU ISYNA1 (11749810_s_at) / Fold change /veh ISYNA1 (11749810_s_at) / RFU ACY1 (11761880_at) / Fold change /veh ACY1 (11761880_at) / RFU 11764098_at / Fold change /veh 11764098_at / RFU SAMD14 (11745864_x_at) / Fold change /veh SAMD14 (11745864_x_at) / RFU NPB (11741838_a_at) / Fold change /veh NPB (11741838_a_at) / RFU TMPRSS6 (11731388_a_at) / Fold change /veh TMPRSS6 (11731388_a_at) / RFU KRTAP10-2 (11738614_at) / Fold change /veh KRTAP10-2 (11738614_at) / RFU ARHGAP8 /// PRR5-ARHGAP8 (11727945_x_at) / Fold change /veh ARHGAP8 /// PRR5-ARHGAP8 (11727945_x_at) / RFU KRTAP5-7 /// NADSYN1 (11734609_at) / Fold change /veh KRTAP5-7 /// NADSYN1 (11734609_at) / RFU RASL12 (11751679_a_at) / Fold change /veh RASL12 (11751679_a_at) / RFU CDKN2B (11736163_a_at) / Fold change /veh CDKN2B (11736163_a_at) / RFU PRF1 (11729649_at) / Fold change /veh PRF1 (11729649_at) / RFU, ZNF638 /// ZNF638-IT1 / Fold change vs veh, ZNF638 /// ZNF638-IT1 / RFU, PANK3 / Fold change vs veh, PANK3 / RFU, SH3YL1 / Fold change vs veh, SH3YL1 / RFU, ZEB2 / Fold change vs veh, ZEB2 / RFU, NRIP1 / Fold change vs veh, NRIP1 / RFU, PTTG1IP / Fold change vs veh, PTTG1IP / RFU, CAPN2 / Fold change vs veh, CAPN2 / RFU, MED14 / Fold change vs veh, MED14 / RFU, SNORA58 / Fold change vs veh, SNORA58 / RFU, C1orf63 / Fold change vs veh, C1orf63 / RFU, LRRFIP1 / Fold change vs veh, LRRFIP1 / RFU, NDUFAF7 / Fold change vs veh, NDUFAF7 / RFU, SLC12A2 / Fold change vs veh, SLC12A2 / RFU, IBTK / Fold change vs veh, IBTK / RFU, ESF1 / Fold change vs veh, ESF1 / Fold change vs veh, TMEM50B / RFU, TAOK1 / Fold change vs veh, TAOK1 / RFU, ACBD3 / Fold change vs veh, ACBD3 / RFU, TMA16 / Fold change vs veh, TMA16 / RFU, RWDD3 / Fold change vs veh, RWDD3 / RFU, BCAT1 / Fold change vs veh, BCAT1 / RFU, EDEM3 / Fold change vs veh, EDEM3 / RFU, TMEM33 / Fold change vs veh, TMEM33 / RFU, WDR75 / Fold change vs veh, WDR75 / RFU, AHCTF1 / Fold change vs veh, AHCTF1 / RFU, TFRC / Fold change vs veh, TFRC / RFU, ZDHHC17 / Fold change vs veh, ZDHHC17 / RFU, NOM1 / Fold change vs veh, NOM1 / RFU, ARL8B / Fold change vs veh, ARL8B / RFU, ZBTB11 / Fold change vs veh, ZBTB11 / RFU, TAMM41 / Fold change vs veh, TAMM41 / RFU, KIAA1704 /// LOC100996395 / Fold change vs veh, KIAA1704 /// LOC100996395 / RFU, ING1 / Fold change vs veh, ING1 / RFU, TRMT61B / Fold change vs veh, TRMT61B / RFU, FUBP3 / Fold change vs veh, FUBP3 / RFU, TP53 / Fold change vs veh, TP53 / RFU, TNKS2 / Fold change vs veh, TNKS2 / RFU, ZFP14 / Fold change vs veh, ZFP14 / RFU, ACTR2 / Fold change vs veh, ACTR2 / RFU, PPP3R1 / Fold change vs veh, PPP3R1 / RFU, PIK3R1 / Fold change vs veh, PIK3R1 / RFU, HNRNPA1 / Fold change vs veh, HNRNPA1 / RFU, RNF170 / Fold change vs veh, RNF170 / RFU, ZNF28 / Fold change vs veh, ZNF28 / RFU, RNGTT / Fold change vs veh, RNGTT / RFU, OGT / Fold change vs veh, OGT / RFU, BRD1 / Fold change vs veh, BRD1 / RFU, MARS / Fold change vs veh, MARS / RFU, ZNF655 / Fold change vs veh, ZNF655 / RFU, FAHD1 / Fold change vs veh, FAHD1 / RFU, BDP1 / Fold change vs veh, BDP1 / RFU, LRRCC1 / Fold change vs veh, LRRCC1 / RFU, ARID1A / Fold change vs veh, ARID1A / RFU, ZNF146 / Fold change vs veh, ZNF146 / RFU, ZNF330 / Fold change vs veh, ZNF330 / RFU, GPN3 / Fold change vs veh, GPN3 / RFU, C9orf123 / Fold change vs veh, C9orf123 / RFU, N4BP2L2 / Fold change vs veh, N4BP2L2 / RFU, ARFIP1 / Fold change vs veh, ARFIP1 / RFU, FAM179B / Fold change vs veh, FAM179B / RFU, BCL10 / Fold change vs veh, BCL10 / RFU, UHRF1BP1L / Fold change vs veh, UHRF1BP1L / RFU, BET1 / Fold change vs veh, BET1 / RFU, CNOT2 / Fold change vs veh, CNOT2 / RFU, ZNF268 / Fold change vs veh, ZNF268 / Fold change vs veh, ZNF507 / RFU, DGCR2 / Fold change vs veh, DGCR2 / RFU, WDSUB1 / Fold change vs veh, WDSUB1 / Fold change vs veh, HSP90B1 /// MIR3652 / RFU, ADSS / Fold change vs veh, ADSS / RFU, GK / Fold change vs veh, GK / RFU, ZNF148 / Fold change vs veh, ZNF148 / RFU, TAF9 / Fold change vs veh, TAF9 / RFU, SLC1A5 / Fold change vs veh, SLC1A5 / RFU, SLMO2 / Fold change vs veh, SLMO2 / RFU, ABCC4 / Fold change vs veh, ABCC4 / RFU, LOC101060439 /// RAP1B / Fold change vs veh, LOC101060439 /// RAP1B / RFU, RFX7 / Fold change vs veh, RFX7 / RFU, GTPBP10 / Fold change vs veh, GTPBP10 / RFU, CNEP1R1 / Fold change vs veh, CNEP1R1 / RFU, BIVM-ERCC5 /// ERCC5 / Fold change vs veh, BIVM-ERCC5 /// ERCC5 / RFU, ILF3 / Fold change vs veh, ILF3 / RFU 11762660_at / Fold change /veh 11762660_at / RFU VCAN (11757783_s_at) / Fold change /veh VCAN (11757783_s_at) / RFU DDX43 (11728927_at) / Fold change /veh DDX43 (11728927_at) / RFU KRT8 (11758188_x_at) / Fold change /veh KRT8 (11758188_x_at) / RFU NKD1 (11759106_at) / Fold change /veh NKD1 (11759106_at) / RFU SRD5A1 (11742802_a_at) / Fold change /veh SRD5A1 (11742802_a_at) / RFU TPSAB1 /// TPSB2 (11721975_s_at) / Fold change /veh TPSAB1 /// TPSB2 (11721975_s_at) / RFU GSTM3 (11746129_a_at) / Fold change /veh GSTM3 (11746129_a_at) / RFU IL23R (11737362_x_at) / Fold change /veh IL23R (11737362_x_at) / RFU TMEM51 (11727254_a_at) / Fold change /veh TMEM51 (11727254_a_at) / RFU PIWIL2 (11732686_x_at) / Fold change /veh PIWIL2 (11732686_x_at) / RFU ORM1 (11744905_x_at) / Fold change /veh ORM1 (11744905_x_at) / RFU CCDC152 (11743942_at) / Fold change /veh CCDC152 (11743942_at) / RFU ECM1 (11717891_a_at) / Fold change /veh ECM1 (11717891_a_at) / RFU IL23R (11748794_a_at) / Fold change /veh IL23R (11748794_a_at) / RFU TNFAIP8L3 (11732012_x_at) / Fold change /veh TNFAIP8L3 (11732012_x_at) / RFU MBOAT4 (11741988_at) / Fold change /veh MBOAT4 (11741988_at) / RFU 11764193_at / Fold change /veh 11764193_at / RFU TMEM53 (11763286_at) / Fold change /veh TMEM53 (11763286_at) / RFU MAGEB2 (11727129_at) / Fold change /veh MAGEB2 (11727129_at) / RFU TMEM200A (11744735_a_at) / Fold change /veh TMEM200A (11744735_a_at) / RFU CCDC152 (11751479_a_at) / Fold change /veh CCDC152 (11751479_a_at) / RFU FAM211A (11726209_a_at) / Fold change /veh FAM211A (11726209_a_at) / RFU RGS16 (11746705_a_at) / Fold change /veh RGS16 (11746705_a_at) / RFU VCAN (11755009_s_at) / Fold change /veh VCAN (11755009_s_at) / RFU RHOB (11743442_s_at) / Fold change /veh RHOB (11743442_s_at) / RFU RGS16 (11720943_a_at) / Fold change /veh RGS16 (11720943_a_at) / RFU RGS16 (11720944_at) / Fold change /veh RGS16 (11720944_at) / RFU, VPS4B / Fold change vs veh, VPS4B / RFU, CREB1 / Fold change vs veh, CREB1 / RFU, DNAJC13 / Fold change vs veh, DNAJC13 / RFU, GNAQ / Fold change vs veh, GNAQ / RFU, CDK5R1 / Fold change vs veh, CDK5R1 / RFU, ZRANB3 / Fold change vs veh, ZRANB3 / RFU, CUL4A / Fold change vs veh, CUL4A / RFU, CCNY / Fold change vs veh, CCNY / RFU, UFL1 / Fold change vs veh, UFL1 / RFU, COG3 / Fold change vs veh, COG3 / RFU, DIAPH2 / Fold change vs veh, DIAPH2 / RFU, SKA2 / Fold change vs veh, SKA2 / RFU, AFF3 / Fold change vs veh, AFF3 / RFU, LMF1 / Fold change vs veh, LMF1 / RFU, IPO11 / Fold change vs veh, IPO11 / RFU, DFFB / Fold change vs veh, DFFB / RFU, FOXP1 / Fold change vs veh, FOXP1 / RFU, CARD8 / Fold change vs veh, CARD8 / RFU, STRN3 / Fold change vs veh, STRN3 / RFU, ADK / Fold change vs veh, ADK / RFU, RASSF2 / Fold change vs veh, RASSF2 / RFU, WIPF1 / Fold change vs veh, WIPF1 / RFU, LARP1B / Fold change vs veh, LARP1B / RFU, RASA1 / Fold change vs veh, RASA1 / RFU, RB1 / Fold change vs veh, RB1 / RFU, PPFIA1 / Fold change vs veh, PPFIA1 / RFU, MAT2A / Fold change vs veh, MAT2A / RFU, CCT5 / Fold change vs veh, CCT5 / RFU, WDR92 / Fold change vs veh, WDR92 / RFU, CUX1 / Fold change vs veh, CUX1 / RFU, TTC7A / Fold change vs veh, TTC7A / RFU, TMEM135 / Fold change vs veh, TMEM135 / RFU, DEPTOR / Fold change vs veh, DEPTOR / RFU, CPM / Fold change vs veh, CPM / RFU, DNAJB6 / Fold change vs veh, DNAJB6 / RFU, CACNA2D3 / Fold change vs veh, CACNA2D3 / RFU, DTX4 / Fold change vs veh, DTX4 / RFU, TFCP2 / Fold change vs veh, TFCP2 / RFU, GMCL1 /// GMCL1P1 / Fold change vs veh, GMCL1 /// GMCL1P1 / RFU, AEBP2 / Fold change vs veh, AEBP2 / RFU, SNHG1 /// SNORD22 /// SNORD25 /// SNORD26 /// SNORD27 /// SNORD28 /// SNORD29 /// SNORD31 / Fold change vs veh, SNHG1 /// SNORD22 /// SNORD25 /// SNORD26 /// SNORD27 /// SNORD28 /// SNORD29 /// SNORD31 / Fold change (Aza/veh), C12orf56 (ProbeSet 11735607_a_at) / Fold change (ACY-1035/veh), C12orf56 (ProbeSet 11735607_a_at) / Fold change (Aza/veh), FGFR1OP (ProbeSet 11751329_s_at) / Fold change (ACY-1035/veh), FGFR1OP (ProbeSet 11751329_s_at) / Fold change (Aza/veh), VPS36 (ProbeSet 11739960_a_at) / Fold change (ACY-1035/veh), VPS36 (ProbeSet 11739960_a_at) / RFU SYPL1 (11715823_x_at) / Fold change /veh SYPL1 (11715823_x_at) / RFU IGFBP7 (11715501_s_at) / Fold change /veh IGFBP7 (11715501_s_at) / RFU REEP3 (11722064_at) / Fold change /veh REEP3 (11722064_at) / RFU IGLL1 (11728026_x_at) / Fold change /veh IGLL1 (11728026_x_at): dose or concentration left out as unconfirmed. To be noted: MV-4-11 cells, 48 hours.

For `Nc1ncn([C@@H]2O[C@H](CO)[C@@H](O)[C@H]2O)c(=O)n1` [azacitidine], the “Fold change /veh C5orf56 (11738089_at)” value is 1.15.

(Values after paper PMC5218480 (PLoS ONE, 2017).)
